Assay results published in patent US9149038B2, “4-amino-6-(heterocyclic)picolinates and 6-amino-2-(heterocyclic)pyrimidine-4-carboxylates and their use as herbicides” (Dow AgroSciences LLC, priority 2013, dated 2015).
Like-named read-outs stand apart in the source and are kept apart here.

Test system: Direct Seeded Rice and weed species
Assay: Postemergence herbicidal activity in direct seeded rice, visual rating after 20-22 days and probit GR20/GR50/GR80/GR90 (Table 14)
Format: in vivo
Conditions: for pest or weed control at 17.5 g/ha / pest or weed control at 35 g/ha / pest or weed control at 70 g/ha: post-emergence, 504 h, postemergence; for pest or weed control at 17.5 g/ha: 17.5 g ai/ha; for pest or weed control at 35 g/ha: 35 g ai/ha; for pest or weed control at 70 g/ha: 70 g ai/ha
In short: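 Visual injury scores (0 = none, 100 = complete kill) taken 20-22 days after treatment and fitted by probit analysis over several doses to give GR20/GR50/GR80/GR90. Plants at 2nd–3rd true leaf in pH about 8.1 loam–sand mix received track-sprayer applications of 187 L/ha containing 1.25% (v/v) crop oil concentrate.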

[1] = BRAPP (broadleaf signalgrass, Brachiaria platyphylla), read-out: Visual Growth Reduction (%) 21 Days After Application BRAPP
[2] = CYPDI (small-flower flatsedge, Cyperus difformis), read-out: Visual Growth Reduction (%) 21 Days After Application CYPDI
[3] = CYPES (yellow nutsedge, Cyperus esculentus), read-out: Visual Growth Reduction (%) 21 Days After Application CYPES
[4] = CYPIR (rice flatsedge, Cyperus iria), read-out: Visual Growth Reduction (%) 21 Days After Application CYPIR
[5] = DIGSA (large crabgrass, Digitaria sanguinalis), read-out: Visual Growth Reduction (%) 21 Days After Application DIGSA
[6] = ECHCG (barnyardgrass, Echinochloa crus-galli), read-out: Visual Growth Reduction (%) 21 Days After Application ECHCG
[7] = ECHCO (junglerice, Echinochloa colonum), read-out: Visual Growth Reduction (%) 21 Days After Application ECHCO
[8] = LEFCH (Chinese sprangletop, Leptochloa chinensis), read-out: Visual Growth Reduction (%) 21 Days After Application LEFCH
[9] = ORYSJ (Oryza sativa, rice crop), read-out: Visual Growth Reduction (%) 21 Days After Application ORYSJ
[10] = ORYSK (Oryza sativa, rice crop), read-out: Visual Growth Reduction (%) 21 Days After Application ORYSK
[11] = SCPJU (Japanese bulrush, Schoenoplectus juncoides Roxb.), read-out: Visual Growth Reduction (%) 21 Days After Application SCPJU
[12] = SEBEX (hemp sesbania, Sesbania exaltata), read-out: Visual Growth Reduction (%) 21 Days After Application SEBEX

## COC(=O)c1nc(-c2ccc3c(c2F)OC(F)(F)O3)cc(N)c1Cl [Compound 37, Methyl 4-amino-3-chloro-6-(2,2,4-trifluorobenzo-[d][1,3]dioxol-5-yl)picolinate]
BRAPP (Brachiaria platyphylla), probit analysis, dose for 50 percent growth reduction
  GR50 BRAPP: 3 g ai/ha
BRAPP (Brachiaria platyphylla), probit analysis, dose for 80 percent growth reduction
  GR80 BRAPP: 15 g ai/ha
BRAPP (Brachiaria platyphylla), probit analysis, dose for 90 percent growth reduction
  GR90 BRAPP: 39 g ai/ha
CYPDI (Cyperus difformis), probit analysis, dose for 50 percent growth reduction
  GR50 CYPDI: 0.04 g ai/ha
CYPDI (Cyperus difformis), probit analysis, dose for 80 percent growth reduction
  GR80 CYPDI: 1 g ai/ha
CYPDI (Cyperus difformis), probit analysis, dose for 90 percent growth reduction
  GR90 CYPDI: 2 g ai/ha
CYPES (Cyperus esculentus), probit analysis, dose for 50 percent growth reduction
  GR50 CYPES: <18 g ai/ha
CYPES (Cyperus esculentus), probit analysis, dose for 80 percent growth reduction
  GR80 CYPES: <18 g ai/ha
CYPES (Cyperus esculentus), probit analysis, dose for 90 percent growth reduction
  GR90 CYPES: <18 g ai/ha
CYPIR (Cyperus iria), probit analysis, dose for 50 percent growth reduction
  GR50 CYPIR: 6 g ai/ha
CYPIR (Cyperus iria), probit analysis, dose for 80 percent growth reduction
  GR80 CYPIR: 23 g ai/ha
CYPIR (Cyperus iria), probit analysis, dose for 90 percent growth reduction
  GR90 CYPIR: 46 g ai/ha
DIGSA (Digitaria sanguinalis), probit analysis, dose for 50 percent growth reduction
  GR50 DIGSA: 0.07 g ai/ha
DIGSA (Digitaria sanguinalis), probit analysis, dose for 80 percent growth reduction
  GR80 DIGSA: 2 g ai/ha
DIGSA (Digitaria sanguinalis), probit analysis, dose for 90 percent growth reduction
  GR90 DIGSA: 8 g ai/ha
ECHCG (Echinochloa crus-galli), probit analysis, dose for 50 percent growth reduction
  GR50 ECHCG: 0.33 g ai/ha
ECHCG (Echinochloa crus-galli), probit analysis, dose for 80 percent growth reduction
  GR80 ECHCG: 4 g ai/ha
ECHCG (Echinochloa crus-galli), probit analysis, dose for 90 percent growth reduction
  GR90 ECHCG: 17 g ai/ha
ECHCO (Echinochloa colonum), probit analysis, dose for 50 percent growth reduction
  GR50 ECHCO: 0.001 g ai/ha
ECHCO (Echinochloa colonum), probit analysis, dose for 80 percent growth reduction
  GR80 ECHCO: 0.2 g ai/ha
ECHCO (Echinochloa colonum), probit analysis, dose for 90 percent growth reduction
  GR90 ECHCO: 3 g ai/ha
LEFCH (Leptochloa chinensis), probit analysis, dose for 50 percent growth reduction
  GR50 LEFCH: 116 g ai/ha
LEFCH (Leptochloa chinensis), probit analysis, dose for 80 percent growth reduction
  GR80 LEFCH: 288 g ai/ha
LEFCH (Leptochloa chinensis), probit analysis, dose for 90 percent growth reduction
  GR90 LEFCH: 464 g ai/ha
ORYSJ (Oryza sativa, rice crop), probit analysis, dose for 20 percent growth reduction
  GR20 ORYSJ: 56 g ai/ha
ORYSK (Oryza sativa, rice crop), probit analysis, dose for 20 percent growth reduction
  GR20 ORYSK: 70 g ai/ha
SCPJU (Schoenoplectus juncoides Roxb.), probit analysis, dose for 50 percent growth reduction
  GR50 SCPJU: 0.0001 g ai/ha
SCPJU (Schoenoplectus juncoides Roxb.), probit analysis, dose for 80 percent growth reduction
  GR80 SCPJU: 0.0001 g ai/ha
SCPJU (Schoenoplectus juncoides Roxb.), probit analysis, dose for 90 percent growth reduction
  GR90 SCPJU: 0.0001 g ai/ha
SEBEX (Sesbania exaltata), probit analysis, dose for 50 percent growth reduction
  GR50 SEBEX: 2 g ai/ha
SEBEX (Sesbania exaltata), probit analysis, dose for 80 percent growth reduction
  GR80 SEBEX: 15 g ai/ha
SEBEX (Sesbania exaltata), probit analysis, dose for 90 percent growth reduction
  GR90 SEBEX: 47 g ai/ha
[1]
  pest or weed control at 17.5 g/ha: 60 to 74%
  pest or weed control at 35 g/ha: 85 to 94%
  pest or weed control at 70 g/ha: 95 to 100%
[2]
  pest or weed control at 17.5 g/ha: 95 to 100%
  pest or weed control at 35 g/ha: 95 to 100%
  pest or weed control at 70 g/ha: 95 to 100%
[3]
  pest or weed control at 17.5 g/ha: 75 to 84%
  pest or weed control at 35 g/ha: 85 to 94%
  pest or weed control at 70 g/ha: 95 to 100%
[4]
  pest or weed control at 17.5 g/ha: 85 to 94%
  pest or weed control at 35 g/ha: 45 to 59%
  pest or weed control at 70 g/ha: 95 to 100%
[5]
  pest or weed control at 17.5 g/ha: 85 to 94%
  pest or weed control at 35 g/ha: 95 to 100%
  pest or weed control at 70 g/ha: 95 to 100%
[6]
  pest or weed control at 17.5 g/ha: 85 to 94%
  pest or weed control at 35 g/ha: 85 to 94%
  pest or weed control at 70 g/ha: 95 to 100%
[7]
  pest or weed control at 17.5 g/ha: 85 to 94%
  pest or weed control at 35 g/ha: 95 to 100%
  pest or weed control at 70 g/ha: 95 to 100%
[8]
  pest or weed control at 17.5 g/ha: 0 to 29%
  pest or weed control at 35 g/ha: 0 to 29%
  pest or weed control at 70 g/ha: 45 to 59%
[9]
  pest or weed control at 17.5 g/ha: 0 to 29%
  pest or weed control at 35 g/ha: 0 to 29%
  pest or weed control at 70 g/ha: 30 to 44%
[10]
  pest or weed control at 17.5 g/ha: 0 to 29%
  pest or weed control at 35 g/ha: 0 to 29%
  pest or weed control at 70 g/ha: 0 to 29%
[11]
  pest or weed control at 17.5 g/ha: 95 to 100%
  pest or weed control at 35 g/ha: 95 to 100%
  pest or weed control at 70 g/ha: 95 to 100%
[12]
  pest or weed control at 17.5 g/ha: 75 to 84%
  pest or weed control at 35 g/ha: 85 to 94%
  pest or weed control at 70 g/ha: 95 to 100%
